Measurements reported in patent US20260347325A1, “DIPHENYLPYRAZOLE COMPOUNDS AND THEIR USE” (INSTITUT NATIONAL DE LA SANTÉ ET DE LA RECHERCHE MÉDICALE, priority 2022, published 2026).

Tests used:
[1] = tested on: Aβ1-40; assay: Aβ1-40 secretion in SY5Y-APPwt cells (ELISA of conditioned media); type: cell-based; details: Homo sapiens, 24 h, inhibiting 50% of Aβ1-40 secretion, mean ± SD of at least two experiments in triplicate
Procedure: (§1) 2. Cell Culture and Treatments
(§2) The human neuroblastoma cell line SY5Y-APP^695WT was maintained in Dulbecco's modified Eagle medium (DMEM, high glucose, pyruvate—GIBCO, Life Technologies) supplemented with 10% fetal bovine serum, 2 mM L-glutamine, 1 mM non-essential amino acids and penicillin/streptomycin (GIBCO, Life Technologies) at 37°C in a 5% CO2 humidified incubator [36]. For compound treatment, a 10 mM stock solution was diluted in freshly supplemented DMEM medium to obtain the precise final concentration of the drug. Cells were plated at a density of 5.10^5 cells per well into 12-well plates and cultured with 1 mL supplemented DMEM cell medium for 24 h before compound exposure. The following day, the cell medium was replaced with fresh medium containing the compounds diluted at the indicated concentrations. Cells were treated for 24 h. At the end of treatments, the cell medium was collected and kept at −80°C until use, cells were rinsed once with PBS and extracted in 100 μL of Laemmli buffer (10 mM Tris, 20% glycerol, and 2% sodium dodecyl sulfate) using a cell-scraper. The cell lysate was further sonicated (30 pulses of 0.5 s, 60 Hz) for 5 min. Total protein concentration was determined using the Pierce BCA Protein Assay Kit (Thermo Scientific) according to the manufacturer's instructions. Samples were stored at −80°C until analysis.
(§3) 5. Quantification of Secreted Aβ and sAPP […]
(§4) Aβ1-40/Aβ1_42 peptides, Aβx-38/Aβx-40/Aβx-42 and sAPPα/sAPPβ concentrations in […] were determined, respectively, using amyloid-beta 40 and 42 Human ELISA kits (Invitrogen), V-PLEX Plus Aβ Peptide Panel 1 (4G8) Kit (Meso Scale Diagnostics, MSD R©) and sAPPα/sAPPβ multiplex kit (Meso Scale Diagnostics, MSD R©) according to the manufacturer's instructions.
(§5) Compounds of the invention (compounds 16-17, 24-35, 57-58 and 61-72) were evaluated for their ability to modulate APP processing on SYSY human neuroblastoma cell line stably expressing the neuronal isoform of human wild-type APP695 (SY5Y-APP^wt). APP carboxy-terminal fragments (αCTFs and AICD) levels were assessed by western blotting (WB). The effect of reference and test compounds on αCTFs and AICD is expressed as the intensity of corresponding WB bands. The concentration of compounds able to increase 20-times αCTFs and AICD (C20) when compared to the control condition was calculated. Selected compounds were also evaluated for their ability to modulate the secretion of soluble APP fragments (sAPPα and sAPPβ). Aβ1-x levels (Aβ1_40 and Aβ1-42) after treatment with reference and tested compounds were measured in the cell media by ELISA (Table 2). […] Selected hit compounds were then further evaluated for their ability to decrease the level of N-truncated Aβ peptides (Aβx-38, Aβx-40, and Aβx-42). […]

[2] = tested on: Aβ1-42; assay: Aβ1-42 secretion in SY5Y-APPwt cells (ELISA of conditioned media); type: cell-based; details: Homo sapiens, 24 h, inhibiting 50% of Aβ1-42 secretion, mean ± SD of at least two experiments in triplicate
Procedure: as §1, §2, §3, §4, §5

[3] = tested on: αCTF; assay: αCTF level in SY5Y-APPwt cells by western blotting; type: cell-based; details: Homo sapiens, 24 h; concentration to increase αCTF by 20-fold vs untreated; mean of at least three experiments, less than 10% deviation; read-out: αCTF (C20)
Procedure: as §2
(§6) Cell protein lysates were prepared for western-blot analysis by diluting the sample with 1 volume of NuPAGE® lithium dodecyl sulfate (LDS) 2× sample buffer supplemented with 20% NuPAGE® sample reducing agents (Invitrogen). Samples were heated for 10 min at 100°C Ten μg of total proteins per well were loaded onto precast 4-12% Criterion XT Bis-Tris polyacrylamide gels (Bio-Rad) and electrophoresis was achieved after applying a tension of 150 V during 90 min using a Criterion electrophoresis Cell with the NuPAGE® MOPS SDS running buffer (1×). Proteins were transferred to a nitrocellulose membrane of […] pore size (G&E Healthcare) using the Criterion blotting system and applying a tension of 100 V for 45 min. To resolve proteins of low molecular weights such as carboxy-terminal fragments of APP, 12% Criterion XT Bis-Tris polyacrylamide gels (Bio-Rad) were used and electrophoresis was performed during 70 min at 150 V in a NuPAGE® MES SDS running buffer (1×). […] Protein transfer and quality were determined by a reversible Ponceau Red coloration (0.2% xylidine Ponceau Red and 3% trichloroacetic acid). […] Quantifications of protein expression levels were performed with Image Quant TL (G&E Healthcare). […]
(§7) Compounds of the invention (compounds 16-17, 24-35, 57-58 and 61-72) were evaluated for their ability to modulate APP processing on SYSY human neuroblastoma cell line stably expressing the neuronal isoform of human wild-type APP695 (SY5Y-APP^wt). […]

[4] = tested on: AICD; assay: AICD level in SY5Y-APPwt cells by western blotting; type: cell-based; details: Homo sapiens, 24 h; concentration to increase AICD by 20-fold vs untreated; mean of at least three experiments, less than 10% deviation; read-out: AICD (C20)
Procedure: as §2, §6, §7

[5] = Cytotoxicity MTS assay; type: cell-based; details: human, sy5y-app695wt cells; 50% of cell death after 72 h treatment
Procedure: Cytotoxicity was measured using 3-(4,5-dimethylthiazol-2-yl)-5-(3-carboxymethoxyphenyl)-2-(4-sulfophenyl)-2H-tetrazolium (MTS) tests. SY5Y-APP^695WT cells were plated in a 96-wells plate at 3.10^4 cells per well and allowed to attach for 24 h. Cells were then incubated for 72 h with 100 μL of DMEM medium with 10% SVF containing (or not) the defined concentration of drugs. Cytotoxicity was determined by using the colorimetric MTS assay (Cell Titer 96® Aqueous One Solution Cell Proliferation Assay-MTS Promega) according to the manufacturer's instructions. Absorbance was read at 490 nm.

[6] = tested on: sAPPβ; assay: sAPPβ secretion (sAPPα/sAPPβ multiplex kit); type: cell-based; details: Homo sapiens; inhibiting 50% of sAPPβ secretion in SY5Y cells; mean ± SD of at least three experiments in triplicate
Procedure: (§8) The human neuroblastoma cell line SY5Y-APP^695WT was maintained in Dulbecco's modified Eagle medium (DMEM, high glucose, pyruvate—GIBCO, Life Technologies) supplemented with 10% fetal bovine serum, 2 mM L-glutamine, 1 mM non-essential amino acids and penicillin/streptomycin (GIBCO, Life Technologies) at 37°C in a 5% CO2 humidified incubator [36]. For compound treatment, a 10 mM stock solution was diluted in freshly supplemented DMEM medium to obtain the precise final concentration of the drug. Cells were plated at a density of 5.10^5 cells per well into 12-well plates and cultured with 1 mL supplemented DMEM cell medium for 24 h before compound exposure. […] Total protein concentration was determined using the Pierce BCA Protein Assay Kit (Thermo Scientific) according to the manufacturer's instructions. […]
as §4, with “instructions. […]” for “instructions.”
(§9) The activity of compounds of the invention on sAPPα 6 and sAPPβ was further explored. The expression of sAPPβ and sAPPα, which are by-products of β- and α-secretase respectively, were quantified in media of treated cells.

[7] = tested on: sAPPα; assay: sAPPα secretion (sAPPα/sAPPβ multiplex kit); type: cell-based, human; details: for EC (1.5-fold): Homo sapiens, 24 h, concentration to increase sAPPα by 1.5-fold vs untreated, read-out: sAPPα C1.5; for secretion of sAPPα: in words
Procedure: as §2
Conditioned media of SYSY-APP^695WT collected at the end of treatments were centrifuged at 1000×g for 5 min to eliminate cell debris.
as §4
(§10) Compounds of the invention (compounds 16-17, 24-35, 57-58 and 61-72) were evaluated for their ability to modulate APP processing on SYSY human neuroblastoma cell line stably expressing the neuronal isoform of human wild-type APP695 (SY5Y-APP^wt). APP carboxy-terminal fragments (αCTFs and AICD) levels were assessed by western blotting (WB). The effect of reference and test compounds on αCTFs and AICD is expressed as the intensity of corresponding WB bands. The concentration of compounds able to increase 20-times αCTFs and AICD (C20) when compared to the control condition was calculated. Selected compounds were also evaluated for their ability to modulate the secretion of soluble APP fragments (sAPPα and sAPPβ). Aβ1-x levels (Aβ1_40 and Aβ1-42) after treatment with reference and tested compounds were measured in the cell media by ELISA (Table 2). […] Selected hit compounds were then further evaluated for their ability to decrease the level of N-truncated Aβ peptides (Aβx-38, Aβx-40, and Aβx-42). […] 2015, 6, 559-569; B1: compound 8 of M. Gay et al., Bioorg. Med. Chem. 2018, 26, 2151-2164.
as §9

[8] = tested on: αCTF; details: 20-fold increase vs untreated; prior art reference compounds, footnotes e, f cite literature; cited from earlier work
[9] = tested on: AICD; details: 20-fold increase vs untreated; prior art reference compounds, footnotes e, f cite literature; cited from earlier work
[10] = tested on: SY5Y-APP695WT cells; details: 72 h; prior art reference compounds, footnotes e, f cite literature; read-out: Cytotoxicity CC50; cited from earlier work
[11] = tested on: Aβ; details: in words; cited from earlier work
[12] = tested on: APP-CTFs and AICD; details: in words; cited from earlier work
[13] = tested on: γ-secretase cleavage of Notch; details: in words; cited from earlier work
[14] = tested on: Aβ1-x peptides; assay: Aβ1-x (Aβ1-40 and Aβ1-42) secretion; type: cell-based, human; details: in words
Procedure: as §8, with “exposure. The following day, the cell medium was replaced with fresh medium containing the compounds diluted at the indicated concentrations. Cells were treated for 24 h.” for “exposure.”
as §4, with “instructions. […]” for “instructions.”

[15] = tested on: β-secretase; assay: β-secretase cleavage of APP; type: cell-based, human; details: in words
Procedure: as §10, §9

IC50 [1] [µM] | IC50 [2] [µM] | SMILES | EC (20-fold increase) [3] [µM] | EC (20-fold increase) [4] [µM] | CC50 at 72 h [5] [µM] | EC (1.5-fold) [7] [µM] | also measured
12.4 ± 0.6 | 13.2 ± 0.2 | CN(C)CCCc1ccc(-c2nn(-c3cccc(CN(C)CCCN(C)C)c3)cc2CCCN(C)C)cc1 [Compound 35, N′-[[3-[4-[3-(dimethylamino)propyl]-3-[4-[3-(dimethylamino)propyl]phenyl]-1H-pyrazol-1-yl]phenyl]methyl]-N,N,N′-trimethyl-propane-1,3-diamine] | 5.1 | 5.4 | > 100 | – | –
9.2 ± 0.4 | 9.7 ± 1.2 | CN(C)CCCc1ccc(-c2nn(-c3ccc(CN(C)CCCN(C)C)cc3)cc2CCCN(C)C)cc1 [Compound 33, N′-[[4-[4-[3-(dimethylamino)propyl]-3-[4-[3-(dimethylamino)propyl]phenyl]-1H-pyrazol-1-yl]phenyl]methyl]-N,N,N′-trimethyl-propane-1,3-diamine] | 6.1 | 8.9 | > 100 | > 10 | IC50 [6]: 6.8 ± 0.3 µM
– | – | Cc1cn(-c2cccc(CN(C)CCCN(C)C)c2)nc1-c1ccc(CN(C)CCCN(C)C)cc1 [Compound 69, [3-(dimethylamino)propyl][(4-{1-[3-({[3-(dimethylamino)propyl](methyl)amino}methyl)phenyl]-4-methyl-1H-pyrazol-3-yl}phenyl)methyl]methylamine] | – | – | – | > 5 | –
– | – | CCN(CC)CCCC(C)Nc1ccnc2cc(Cl)ccc12 (stereo not drawn) [CQ, chloroquine] | – | – | – | – | αCTF (C20) [8]: >>10 μM; AICD (C20) [9]: >>10 μM; CC50 [10]: 30 µM; Aβ production [11]: inhibit Aβ production; levels of other APP metabolites such as APP-CTFs and AICD [12]: maintained and even increased; γ-secretase cleavage of Notch [13]: remains unmodified
– | – | Cc1cn(-c2cccc(CN3CCN(C)CC3)c2)nc1-c1cccc(CN(C)CCCN(C)C)c1 [Compound 71, N,N,N′-trimethyl-N′-[[3-[4-methyl-1-[3-[(4-methylpiperazin-1-yl)methyl]phenyl]pyrazol-3-yl]phenyl]methyl]propane-1,3-diamine] | – | – | – | 1.1 | secretion of sAPPα [7]: increasing the secretion of sAPPα; Aβ1-x peptides secretion [14]: reduce Aβ1-x peptides secretion; β-secretase cleavage of APP / β-secretase modulatory activity [15]: repressing the β-secretase cleavage of APP
4.2 ± 0.1 | 6.1 ± 0.3 | CN(C)CCCc1ccc(-c2nn(-c3ccc(CN(C)CCCN(C)C)cc3)cc2CN(C)C)cc1 [Compound 32, N′-[[4-[4-(dimethylaminomethyl)-3-[4-[3-(dimethylamino)propyl]phenyl]-1H-pyrazol-1-yl]phenyl]methyl]-N,N,N′-trimethyl-propane-1,3-diamine] | 1.1 | 1.8 | > 100 | – | –
5.7 ± 0.5 | 8.3 ± 0.2 | CN(C)CCCc1ccc(-c2nn(-c3cccc(CN(C)CCCN(C)C)c3)cc2CN(C)C)cc1 [Compound 34, N′-[[3-[4-(dimethylaminomethyl)-3-[4-[3-(dimethylamino)propyl]phenyl]-1H-pyrazol-1-yl]phenyl]methyl]-N,N,N′-trimethyl-propane-1,3-diamine] | 1.1 | 1.9 | > 100 | > 10 | IC50 [6]: 4.5 ± 0.7 µM
– | – | Cc1cn(-c2cccc(CN(C)C)c2)nc1-c1ccc(CN(C)CCCN(C)C)cc1 [Compound 67, {[4-(1-{3-[(dimethylamino)methyl]phenyl}-4-methyl-1H-pyrazol-3-yl)phenyl]methyl}-[3-(dimethylamino)propyl]methylamine] | – | – | – | 1.4 | secretion of sAPPα [7]: increasing the secretion of sAPPα; Aβ1-x peptides secretion [14]: reduce Aβ1-x peptides secretion; β-secretase cleavage of APP / β-secretase modulatory activity [15]: repressing the β-secretase cleavage of APP
